Data taken from patent publication US10329235B2, “System and method for producing 1,4-cyclohexanedimethanol and 1,4- cyclohexanedicarboxylic acid from terephthalic acid” (ClearWaterBay CHDM Technology Limited, priority 2017, dated 2019).

Tests used:
[1] = Solubility of TPA in water; type: physicochemical
Description: Based on this, it is clearly evident that it will be beneficial to have processes for production of CHDM and CHDA directly from TPA without going through an intermediate TPA derivative. As noted initially, the main hurdle for such processes is getting TPA into the liquid phase.

[2] = Dissolution of TPA and CHDA in water in stirred autoclave (Examples 1-3); type: physicochemical; details: Examples 1-3: 1.7-1.9 wt % TPA, 28.1-48.2 wt % CHDA, 50-70 wt % water, 170-190 °C, 10 MPa, 15 minutes
Procedure: These examples are provided to highlight and validate the use of the method based on the dissolution chart for setting solvent and recirculation flows. For each of these examples, a slurry was prepared in a stirred autoclave, by mixing pre-determined amounts of water, TPA in powder form, and CHDA (22% trans) in powder form. The autoclave was then pressurized to 10 MPa using nitrogen gas and the temperature was then raised to the pre-determined level. Samples were drawn after 15 minutes of operation at this temperature level and analyzed to determine the compositions of TPA and CHDA. The predetermined feed mixture compositions and the pre-determined temperature levels for these experiments are shown in Table 1 below. Each pre-determined feed mixture composition is chosen such that it very closely corresponds to water/TPA and recirculation/TPA flow ratios that may be used in actual operation according to the preferred values from FIG. 6.

Compound	TPA Solubility ([1]; 150 °C) [wt fraction]	TPA Solubility ([1]; 200 °C) [wt fraction]	TPA Solubility ([1]; 250 °C) [wt fraction]	Dissolution in water/TPA/CHDA mixture [2]
O=C(O)c1ccc(C(=O)O)cc1 [TPA, terephthalic acid]	0.0022	0.016	0.11	completely dissolved
O=C(O)C1CCC(C(=O)O)CC1 (centres unmarked) [CHDA, 1,4-cyclohexanedicarboxylic acid]				completely dissolved
